Where two headings read alike, the source gives them in different places.
Columns and labels:
[1] = test system: covalently-activated EGFR variants (EGFR-Viii, EGFR-Vii, EGFR-Vvi, EGFR-A289V); assay: Western blot under non-reducing conditions: monomeric versus covalently dimerized and phosphorylated EGFR; assay type: cell-based, Homo sapiens
EGFR WT = molecular target: T1, EGFR WT (Homo sapiens, UniProt P00533); assay: Assay for cell proliferation (CellTiterGlo), Activity for Inhibiting EGFR; assay type: cell-based; details: potency code, 3 days drug
T1 construct: endogenous in cells; host or cells: A431 (+H292)

EGFR V3 (EGFR-Viii) = molecular target: T2, EGFR V3 (EGFR-Viii) (Homo sapiens, UniProt P00533, DELINS30-297G); assay: Assay for cell proliferation (BaF3 transformants, CellTiterGlo), Activity for Inhibiting EGFR; assay type: cell-based; details: potency code, 3 days drug
T2 construct: expressed in transfected cells; host or cells: BaF3 (murine pro-B), retroviral pMXs-IRES-Blasticidin, selected for IL-3 independence
T2 sequence (P00533 with tags, fused parts or gaps DELINS30-297G): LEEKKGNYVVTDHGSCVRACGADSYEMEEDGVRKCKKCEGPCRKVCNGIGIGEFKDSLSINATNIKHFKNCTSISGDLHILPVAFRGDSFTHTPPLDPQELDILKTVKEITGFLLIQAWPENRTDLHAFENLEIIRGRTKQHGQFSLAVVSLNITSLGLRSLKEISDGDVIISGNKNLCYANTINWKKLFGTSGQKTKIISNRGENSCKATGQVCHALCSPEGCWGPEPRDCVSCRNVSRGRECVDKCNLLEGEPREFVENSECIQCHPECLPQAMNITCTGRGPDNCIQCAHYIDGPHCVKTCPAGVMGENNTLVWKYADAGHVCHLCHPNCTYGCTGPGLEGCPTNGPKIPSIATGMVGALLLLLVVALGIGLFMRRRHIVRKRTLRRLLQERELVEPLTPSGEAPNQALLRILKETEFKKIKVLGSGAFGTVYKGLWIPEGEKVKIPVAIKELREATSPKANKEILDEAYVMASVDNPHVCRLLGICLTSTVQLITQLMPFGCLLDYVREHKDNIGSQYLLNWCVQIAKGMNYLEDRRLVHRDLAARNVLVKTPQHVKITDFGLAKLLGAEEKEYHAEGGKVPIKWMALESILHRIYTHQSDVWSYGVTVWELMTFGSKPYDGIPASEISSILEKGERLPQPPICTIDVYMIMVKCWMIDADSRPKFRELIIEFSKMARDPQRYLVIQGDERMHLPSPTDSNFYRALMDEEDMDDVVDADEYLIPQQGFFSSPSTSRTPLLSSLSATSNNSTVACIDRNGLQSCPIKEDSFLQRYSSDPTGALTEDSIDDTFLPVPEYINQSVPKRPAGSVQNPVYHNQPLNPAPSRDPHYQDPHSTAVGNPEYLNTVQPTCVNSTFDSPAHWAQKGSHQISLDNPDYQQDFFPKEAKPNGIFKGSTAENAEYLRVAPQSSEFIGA
Protocol: (§1) Retroviral Production: EGFR mutants were subcloned into pMXs-IRES-Blasticidin (RTV-016, Cell Biolabs, San Diego, Calif.). Retroviral expression vector retrovirus was produced by transient transfection of HEK 293T cells with the retroviral EGFR mutant expression vector pMXs-IRES-Blasticidin (RTV-016, Cell Biolabs), pCMV-Gag-Pol vector and pCMV-VSV-G-Envelope vector. HEK 293T/17 cells were plated in 100 mm collagen coated plate (354450, Corning Life Sciences, Tewksbury, Mass.) (4×10^5 per plate) and incubated overnight. The next day, retroviral plasmids (3 μg of EGFR mutant, 1.0 μg of pCMV-Gag-Pol and 0.5 μg pCMV-VSV-G) were mixed in 500 μl of Optimem (31985, Life Technologies). The mixture was incubated at room temperature for 5 min and then added to Optimem containing transfection reagent Lipofectamine (11668, Invitrogen) and incubated for 20 minutes. Mixture was then added dropwise to HEK 293T cells. The next day the medium was replaced with fresh culture medium and retrovirus was harvested @ 24 and 48 hrs. Generation of EGFR mutant stable cell lines: BaF3 cells (1.5E5 cells) were infected with 1 ml of viral supernatant supplemented with 8 μg/ml polybrene by centrifuging for 30 min at 1000 rpm. Cells were placed in a 37° C. incubator overnight. Cells were then spun for 5 minutes to pellet the cells. Supernatant was removed and cells re-infected a fresh 1 ml of viral supernatant supplemented with 8 μg/ml polybrene by centrifuging for 30 min at 1000 rpm. Cells were placed in 37° C. incubator overnight. […] After 48 hours cells were selected for retroviral infection in 10 μg/ml Blasticidin for one week. Blasticidin resistant populations were washed twice in phosphate buffered saline before plating in media lacking IL-3 to select for IL-3 independent growth.
as §1, with “fresh 1 m1 of viral” for “fresh 1 ml of viral”

HER2 WT = molecular target: T3, HER2 WT (Homo sapiens, UniProt P04626); assay: Assay for cell proliferation (CellTiterGlo), Activity for Inhibiting HER2; assay type: cell-based
T3 construct: endogenous in cells; host or cells: BT474
T3 sequence (P04626 23-1255): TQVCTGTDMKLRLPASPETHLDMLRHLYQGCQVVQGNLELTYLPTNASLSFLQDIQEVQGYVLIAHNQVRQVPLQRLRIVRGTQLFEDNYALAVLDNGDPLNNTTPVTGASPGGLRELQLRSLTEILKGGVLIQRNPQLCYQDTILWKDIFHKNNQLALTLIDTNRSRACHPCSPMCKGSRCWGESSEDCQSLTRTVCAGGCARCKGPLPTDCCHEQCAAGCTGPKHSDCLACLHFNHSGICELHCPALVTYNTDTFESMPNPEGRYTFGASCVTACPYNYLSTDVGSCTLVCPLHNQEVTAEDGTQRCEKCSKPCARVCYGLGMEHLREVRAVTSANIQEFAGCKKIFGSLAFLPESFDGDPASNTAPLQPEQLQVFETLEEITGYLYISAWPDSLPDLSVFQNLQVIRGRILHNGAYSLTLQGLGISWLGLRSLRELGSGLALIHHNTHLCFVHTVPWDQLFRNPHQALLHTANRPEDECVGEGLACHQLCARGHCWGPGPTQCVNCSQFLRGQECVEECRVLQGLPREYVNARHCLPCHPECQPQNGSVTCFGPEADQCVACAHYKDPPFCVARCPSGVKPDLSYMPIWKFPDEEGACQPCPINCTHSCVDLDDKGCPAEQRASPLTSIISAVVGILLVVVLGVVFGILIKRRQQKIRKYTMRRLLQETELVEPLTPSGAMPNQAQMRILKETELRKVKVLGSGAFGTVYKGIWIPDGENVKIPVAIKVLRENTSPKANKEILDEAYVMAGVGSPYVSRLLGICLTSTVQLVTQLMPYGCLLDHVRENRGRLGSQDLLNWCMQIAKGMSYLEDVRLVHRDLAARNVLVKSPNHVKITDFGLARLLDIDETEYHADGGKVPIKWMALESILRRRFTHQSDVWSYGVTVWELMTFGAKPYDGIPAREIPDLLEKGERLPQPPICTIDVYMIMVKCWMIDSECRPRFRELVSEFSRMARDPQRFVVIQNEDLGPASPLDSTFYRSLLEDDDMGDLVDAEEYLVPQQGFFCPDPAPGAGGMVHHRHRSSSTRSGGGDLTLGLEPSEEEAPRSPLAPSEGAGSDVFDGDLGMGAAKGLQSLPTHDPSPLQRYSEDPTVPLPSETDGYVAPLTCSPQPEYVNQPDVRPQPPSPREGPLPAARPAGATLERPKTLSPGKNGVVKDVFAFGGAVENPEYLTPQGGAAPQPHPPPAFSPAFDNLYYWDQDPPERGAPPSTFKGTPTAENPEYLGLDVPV

HER2 S310F = molecular target: T4, HER2 S310F (Homo sapiens, UniProt P04626, S310F); assay: Assay for cell proliferation (BaF3 transformants, CellTiterGlo), Activity for Inhibiting HER2; assay type: cell-based; details: potency code, 3 days drug
T4 construct: expressed in transfected cells; host or cells: BaF3 (murine pro-B) transformants
T4 sequence (P04626 23-1255 S310F): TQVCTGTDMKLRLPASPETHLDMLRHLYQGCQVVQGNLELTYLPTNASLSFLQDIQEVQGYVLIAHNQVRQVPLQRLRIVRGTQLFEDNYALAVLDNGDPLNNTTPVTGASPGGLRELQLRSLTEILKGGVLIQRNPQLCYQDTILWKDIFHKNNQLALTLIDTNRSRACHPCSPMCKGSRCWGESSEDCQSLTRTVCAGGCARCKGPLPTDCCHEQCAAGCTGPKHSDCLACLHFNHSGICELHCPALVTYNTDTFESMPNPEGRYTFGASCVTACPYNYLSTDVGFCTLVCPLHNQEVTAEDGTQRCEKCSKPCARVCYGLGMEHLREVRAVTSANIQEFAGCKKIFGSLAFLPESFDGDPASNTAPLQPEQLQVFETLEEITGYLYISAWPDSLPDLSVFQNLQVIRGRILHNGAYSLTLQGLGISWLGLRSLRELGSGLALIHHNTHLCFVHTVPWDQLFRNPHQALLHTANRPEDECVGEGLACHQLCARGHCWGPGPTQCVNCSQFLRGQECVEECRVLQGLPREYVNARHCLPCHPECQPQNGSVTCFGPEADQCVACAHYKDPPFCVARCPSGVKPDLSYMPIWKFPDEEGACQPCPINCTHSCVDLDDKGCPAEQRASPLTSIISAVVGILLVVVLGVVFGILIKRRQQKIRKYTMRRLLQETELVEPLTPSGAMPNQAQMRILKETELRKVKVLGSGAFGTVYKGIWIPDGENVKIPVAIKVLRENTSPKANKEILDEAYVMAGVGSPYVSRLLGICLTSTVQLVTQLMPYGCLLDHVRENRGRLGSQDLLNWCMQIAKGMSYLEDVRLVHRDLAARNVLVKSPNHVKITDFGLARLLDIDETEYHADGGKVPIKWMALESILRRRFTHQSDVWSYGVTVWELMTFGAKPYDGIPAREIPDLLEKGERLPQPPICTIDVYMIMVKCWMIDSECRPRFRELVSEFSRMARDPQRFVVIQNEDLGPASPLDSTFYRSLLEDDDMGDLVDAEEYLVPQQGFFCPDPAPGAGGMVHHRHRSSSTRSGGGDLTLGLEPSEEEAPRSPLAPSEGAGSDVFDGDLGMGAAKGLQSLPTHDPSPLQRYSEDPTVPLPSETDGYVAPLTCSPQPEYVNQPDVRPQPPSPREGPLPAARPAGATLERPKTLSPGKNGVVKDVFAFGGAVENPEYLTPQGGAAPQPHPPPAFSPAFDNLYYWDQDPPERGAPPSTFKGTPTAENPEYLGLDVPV

EGFR NPH = molecular target: T5, EGFR NPH (Homo sapiens, UniProt P00533, INS773NPH); assay: Assay for cell proliferation (BaF3 transformants, CellTiterGlo), Activity for Inhibiting EGFR; assay type: cell-based; details: potency code, 3 days drug
T5 construct: expressed in transfected cells; host or cells: BaF3 (murine pro-B), retroviral pMXs-IRES-Blasticidin, selected for IL-3 independence
Protocol: as §1
as §1, with “fresh 1 m1 of viral” for “fresh 1 ml of viral”

EGFR SVD = molecular target: T6, EGFR SVD (Homo sapiens, UniProt P00533, INS770SVD); assay: as above; assay type: cell-based; details: potency code, 3 days drug
T6 construct: expressed in transfected cells; host or cells: BaF3 (murine pro-B), retroviral pMXs-IRES-Blasticidin, selected for IL-3 independence
T6 sequence (P00533 with tags, fused parts or gaps INS770SVD): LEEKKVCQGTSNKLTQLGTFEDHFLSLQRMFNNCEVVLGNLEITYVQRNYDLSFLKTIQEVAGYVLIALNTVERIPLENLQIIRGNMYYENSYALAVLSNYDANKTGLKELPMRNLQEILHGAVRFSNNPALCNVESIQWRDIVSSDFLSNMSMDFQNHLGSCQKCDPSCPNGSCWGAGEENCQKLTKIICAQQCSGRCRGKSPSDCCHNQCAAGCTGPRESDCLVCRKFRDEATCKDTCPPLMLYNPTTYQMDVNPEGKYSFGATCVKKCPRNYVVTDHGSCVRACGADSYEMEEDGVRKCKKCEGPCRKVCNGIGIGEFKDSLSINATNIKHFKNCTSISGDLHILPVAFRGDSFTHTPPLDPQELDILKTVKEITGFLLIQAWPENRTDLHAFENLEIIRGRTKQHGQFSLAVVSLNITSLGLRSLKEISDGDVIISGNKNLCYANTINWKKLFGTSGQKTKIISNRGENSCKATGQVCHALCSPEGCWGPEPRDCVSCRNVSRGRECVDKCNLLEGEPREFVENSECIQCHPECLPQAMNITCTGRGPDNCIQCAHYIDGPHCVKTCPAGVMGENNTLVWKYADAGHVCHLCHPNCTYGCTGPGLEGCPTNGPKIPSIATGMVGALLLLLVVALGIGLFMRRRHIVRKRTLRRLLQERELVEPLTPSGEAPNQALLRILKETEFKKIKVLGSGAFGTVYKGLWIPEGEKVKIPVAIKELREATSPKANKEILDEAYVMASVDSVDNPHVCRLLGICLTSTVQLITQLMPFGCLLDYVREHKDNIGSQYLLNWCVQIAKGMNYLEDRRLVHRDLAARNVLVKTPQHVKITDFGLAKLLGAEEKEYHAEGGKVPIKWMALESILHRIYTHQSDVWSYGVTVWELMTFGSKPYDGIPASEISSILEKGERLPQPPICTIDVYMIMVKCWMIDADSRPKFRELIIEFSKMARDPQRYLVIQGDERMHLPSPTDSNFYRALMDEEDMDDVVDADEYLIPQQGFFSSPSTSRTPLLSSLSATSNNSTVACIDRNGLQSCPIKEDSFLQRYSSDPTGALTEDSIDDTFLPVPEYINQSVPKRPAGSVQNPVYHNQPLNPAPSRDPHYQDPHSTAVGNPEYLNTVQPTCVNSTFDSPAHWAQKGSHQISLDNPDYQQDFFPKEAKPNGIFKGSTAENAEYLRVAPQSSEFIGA
Protocol: as §1
as §1, with “fresh 1 m1 of viral” for “fresh 1 ml of viral”

HER2 YVMA = molecular target: T7, HER2 YVMA (Homo sapiens, UniProt P04626, INS775YVMA); assay: Assay for cell proliferation (BaF3 transformants, CellTiterGlo), Activity for Inhibiting HER2; assay type: cell-based; details: potency code, 3 days drug
T7 construct: expressed in transfected cells; host or cells: BaF3 (murine pro-B) transformants

[2] = covalent dimers of covalently-activated EGFR variants, cells expressing EGFR-Vii and EGFR-A289V (FIG. 8)
[3] = Table B (Example 2), potency code, 3 days drug, read-out: HER2 WT
[4] = Table B, potency code, 3 days drug, read-out: HER2 WT
[5] = 'about ... or less', read-out: IC50 value for inhibiting wild-type HER2

SMILES	Induced dimers [1, 2]	Induced dimers [1]	IC50 (EGFR WT; Table A (Example 2))	IC50 (EGFR WT; Table A)	IC50 (EGFR V3 (EGFR-Viii); Table A (Example 2))	IC50 (EGFR V3 (EGFR-Viii); Table A)	IC50 (HER2 WT; [3])	IC50 (HER2 WT; [4])	IC50 (HER2 S310F; Table B (Example 2))	IC50 (HER2 S310F; Table B)	IC50 (HER2 WT; [5])	IC50 (EGFR NPH; Table A (Example 2))	IC50 (EGFR NPH; Table A)	IC50 (EGFR SVD; Table A (Example 2))	IC50 (EGFR SVD; Table A)	IC50 (HER2 YVMA; Table B (Example 2))	IC50 (HER2 YVMA; Table B)
C=CC(=O)Nc1ccc2ncnc(Nc3ccc(OCc4cccc(F)c4)c(Cl)c3)c2c1 [AST-1306]	No	–	–	–	–	–	–	–	–	–	–	–	–	–	–	–	–
C=CC(=O)Nc1cccc(Nc2nc(Nc3ccc(N4CCN(C(C)=O)CC4)cc3OC)ncc2C(F)(F)F)c1 [CO-1686]	–	Yes	–	–	–	–	–	–	–	–	–	–	–	–	–	–	–
COc1cc2ncnc(Nc3ccc(F)c(Cl)c3)c2cc1NC(=O)/C=C/CN1CCCCC1 [Dacomitinib, dacomitinib]	Yes	–	–	–	–	–	–	–	–	–	–	–	–	–	–	–	–
CCOc1cc2ncc(C#N)c(Nc3ccc(OCc4cccc(F)c4)c(Cl)c3)c2cc1NC(=O)/C=C/CN(C)C [HKI-357]	No	–	–	–	–	–	–	–	–	–	–	–	–	–	–	–	–
CCOc1cc2ncc(C#N)c(Nc3ccc(F)c(Cl)c3)c2cc1NC(=O)/C=C/CN(C)C [Pelitinib, pelitinib]	–	Yes	–	–	–	–	–	–	–	–	–	–	–	–	–	–	–
C=CC(=O)Nc1cc2c(Nc3ccc4c(cnn4Cc4cccc(F)c4)c3)ncnc2cc1N(C)CCN(C)C [compound 1]	–	–	500 to 1000 nM	500 to 1000 nM	50 to 100 nM	50 to 100 nM	20 to 30 nM	20 to 30 nM	100 to 200 nM	100 to 200 nM	–	–	–	–	–	–	–
C=CC(=O)Nc1cc2c(Nc3ccc4c(cnn4Cc4cccc(F)c4)c3)ncnc2cc1N(C)CCN1CCOCC1 [compound 2]	–	–	> 1000 nM	> 1000 nM	30 to 50 nM	30 to 50 nM	20 to 30 nM	20 to 30 nM	100 to 200 nM	100 to 200 nM	–	–	–	–	–	–	–
C=CC(=O)Nc1cc2c(Nc3ccc4c(cnn4Cc4cccc(F)c4)c3)ncnc2cc1N(C)CCCN1CCOCC1 [compound 4]	–	–	500 to 1000 nM	500 to 1000 nM	30 to 50 nM	30 to 50 nM	10 to 20 nM	10 to 20 nM	100 to 200 nM	100 to 200 nM	≤ 20 nM	–	–	–	–	–	–
C=CC(=O)Nc1cc2c(Nc3ccc4c(cnn4Cc4cccc(F)c4)c3)ncnc2cc1NCCN1CCOCC1 [compound 5]	–	–	200 to 300 nM	200 to 300 nM	100 to 200 nM	100 to 200 nM	5 to 10 nM	5 to 10 nM	100 to 200 nM	100 to 200 nM	≤ 10 nM	–	–	–	–	–	–
C=CC(=O)Nc1cc2c(Nc3ccc4c(cnn4Cc4cccc(F)c4)c3)ncnc2cc1OCCCN1CC2CC1CO2 (stereo not drawn) [compound 6]	–	–	100 to 200 nM	100 to 200 nM	30 to 50 nM	30 to 50 nM	< 5 nM	< 5 nM	10 to 20 nM	10 to 20 nM	≤ 6 nM	–	–	–	–	–	–
C=CC(=O)Nc1cc2c(Nc3ccc4c(cnn4Cc4cccc(F)c4)c3)ncnc2cc1N(C)CCCN1CC2CC1CO2 (stereo not drawn) [compound 7]	–	–	300 to 500 nM	300 to 500 nM	100 to 200 nM	100 to 200 nM	10 to 20 nM	10 to 20 nM	100 to 200 nM	100 to 200 nM	≤ 20 nM	–	–	–	–	–	–
C=CC(=O)Nc1cc2c(Nc3ccc4c(cnn4Cc4cccc(F)c4)c3)ncnc2cc1OCCN1CCCCC1 [compound 8]	–	–	100 to 200 nM	100 to 200 nM	20 to 30 nM	20 to 30 nM	5 to 10 nM	5 to 10 nM	10 to 20 nM	10 to 20 nM	≤ 10 nM	30 to 50 nM	30 to 50 nM	30 to 50 nM	30 to 50 nM	100 to 200 nM	100 to 200 nM
C=CC(=O)Nc1cc2c(Nc3ccc4c(cnn4Cc4cccc(F)c4)c3)ncnc2cc1C#CC(C)(C)N1CCN(C)CC1 [compound 9]	–	–	300 to 500 nM	300 to 500 nM	30 to 50 nM	30 to 50 nM	5 to 10 nM	5 to 10 nM	10 to 20 nM	10 to 20 nM	≤ 10 nM	30 to 50 nM	30 to 50 nM	30 to 50 nM	30 to 50 nM	50 to 100 nM	50 to 100 nM

Source: patent US20220041613A1, “TYROSINE KINASE INHIBITOR COMPOSITIONS, METHODS OF MAKING AND METHODS OF USE” (Black Diamond Therapeutics, Inc., priority 2018, published 2022)
